Test results reported in ChEMBL document CHEMBL5724696, “Autophagy assay results for EUbOPEN Chemogenomics Library” (2024).

Tested on: TERT-RPE1
Experiment: Here: values are normalized to the negative (DMSO; defined as 0% autophagy induction) and positive (250nM Torin1; mTOR inhibitor; defined as maximal inducer of autophagy = 100%) control compounds and represented as % of autophagy induction. […] The impact of autophagy induction on cells is complex and depends on the affected target. As such, the magnitude of a phenotype may not be equally mirrored in the %-value of autophagy induction and vice versa. The dynamics of the induction may indicate the mode of activation: e.g. activation via phosphorylation or a signaling cascade may occur fast, while activation via transcription factors may take considerably longer. […] Of note, treatment concentrations may be sub-optimal for specific compounds, leading to false negative annotations.
Type: functional, Homo sapiens
Conditions: Culturing Media DMEM/F12 (1:1), 1 % Penicillin/Streptomycin, 10% Fetal bovin serum Add-On: No, Screening Media Control DMEM/F12 (1:1), Screening Media Samples DMEM/F12 (1:1)
[1] = Compound Concentration 1 uM, Timepoint 12 hours
[2] = Compound Concentration 1 uM, Timepoint 24 hours
[3] = Compound Concentration 1 uM, Timepoint 36 hours
[4] = Compound Concentration 1 uM, Timepoint 60 hours

Compound | autophagy induction [1] [%] | autophagy induction [2] [%] | autophagy induction [3] [%] | autophagy induction [4] [%] | autophagy induction (Compound Concentration 3 uM, Timepoint 12 hours) [%] | autophagy induction (Compound Concentration 3 uM, Timepoint 24 hours) [%] | autophagy induction (Compound Concentration 3 uM, Timepoint 36 hours) [%] | autophagy induction (Compound Concentration 3 uM, Timepoint 60 hours) [%]
CC(C)C(=O)N1CCC(c2cn(C)c3ncc(NC(=O)c4cccc(C#N)c4)c(C(F)(F)F)c23)CC1 | -17.3669 | -7.8656 | 13.4062 | -15.2604 |  |  |  | 
CC1(C)CCC(C)(C)c2cc(NC(=O)c3ccc(C(=O)O)cc3)ccc21 [TAMIBAROTENE] | -36.8107 | -29.3713 | -7.633 | 34.9259 |  |  |  | 
Cc1cc(SCc2sc(-c3ccc(C(F)(F)F)cc3)nc2C)ccc1OCC(=O)O [GW501516] | 35.2172 | -7.412 | 9.218 | -19.4944 |  |  |  | 
Cc1oc2ccccc2c1Cc1cc(I)c(OCC(=O)O)c(I)c1 |  |  |  |  | -1.169 | 9.702 | 19.9109 | -4.505
C=C1/C(=C\C=C2/CCC[C@]3(C)[C@@H]([C@H](C)/C=C/C=C/C(O)(CC)CC)CC[C@@H]23)C[C@@H](O)C[C@@H]1O [SEOCALCITOL] | 1.435 | 3.014 | 6.115 | 9.3722 |  |  |  | 
COc1cc2c(cc1CC=C(C)C)C(=O)C[C@@H](c1ccc(O)cc1)O2 [BAVACHININ A] | -6.984 | -10.3298 | -14.6991 | 1.68 |  |  |  | 
CC(C)(O)c1cn(-c2ccc(-c3cccc(S(C)(=O)=O)c3)cc2)c(C(C)(C)c2ccccc2Cl)n1 [BMS-779788] | -11.1228 | -2.718 | 17.5149 | -24.6575 |  |  |  | 
C=C1/C(=C\C=C2/CCC[C@]3(C)[C@@H]([C@H](C)/C=C/[C@H](C)C(C)C)CC[C@@H]23)C[C@@H](O)C[C@@H]1O [DOXERCALCIFEROL] | -0.6335 | -0.7736 | 0.8774 | -4.588 |  |  |  | 
O=C(O)c1ccc2cc(-c3ccc(O)c(C45CC6CC(CC(C6)C4)C5)c3)ccc2c1 [O-DEMETHYLATED ADAPALENE] | -7.665 | -12.7242 | -13.449 | 12.49 |  |  |  | 
CC(=O)Nc1nc(C)c(S(=O)(=O)Nc2ccc(C(O)(C(F)(F)F)C(F)(F)F)cc2)s1 | 4.3226 | 10.3847 | 21.8693 | -92.7489 |  |  |  | 
CC(C)c1ccc(CC(=O)N2CCC[C@@H](c3cccc(OC(C)(C)C(=O)O)c3)C2)cc1 | 2.269 | -2.988 | 2.286 | -0.7623 |  |  |  | 
CN(CCOc1ccc(C[C@H](Nc2ccccc2C(=O)c2ccccc2)C(=O)O)cc1)c1ccccn1.O | -1.212 | -2.25 | 0.5142 | -9.85 |  |  |  | 
CCCCCNC(=O)N1CCC(CN(Cc2ccc(Cl)cc2)Cc2ccc([N+](=O)[O-])s2)C1 (centres undefined) [SR9011] | -13.327 | -1.26 | 19.5212 | -21.0748 |  |  |  | 
CCCCCCCN(CCc1ccc(SC(C)(C)C(=O)O)cc1)C(=O)Nc1ccc(F)cc1F [GSK-9578] | -3.328 | -4.346 | -1.192 | -5.756 |  |  |  | 
COc1cccc(Cn2cc(C(=O)Nc3ccc(C)c(S(=O)(=O)N4CCOCC4)c3)c(-c3ccc(C)cc3)n2)c1 | -3.785 | -6.106 | -1.342 | -4.917 |  |  |  | 
O=S(=O)(Nc1ccc(C(O)(C(F)(F)F)C(F)(F)F)cc1)c1cccs1 | 37.5142 | -2.586 | 11.7189 | -15.4416 |  |  |  | 
